Test results as given in ChEMBL document CHEMBL1149119, “Discovery of a potent and novel motilin agonist” (J Med Chem, 2004).

How the values were obtained:
Motilin receptor [1] = target: T1, Motilin receptor (Homo sapiens, UniProt O43193); assay: In vitro effective concentration towards human motilin receptor; type: functional
Motilin receptor [2] = target: T1, Motilin receptor; assay: In vitro binding affinity towards human motilin receptor

T1 sequence (O43193 whole entry): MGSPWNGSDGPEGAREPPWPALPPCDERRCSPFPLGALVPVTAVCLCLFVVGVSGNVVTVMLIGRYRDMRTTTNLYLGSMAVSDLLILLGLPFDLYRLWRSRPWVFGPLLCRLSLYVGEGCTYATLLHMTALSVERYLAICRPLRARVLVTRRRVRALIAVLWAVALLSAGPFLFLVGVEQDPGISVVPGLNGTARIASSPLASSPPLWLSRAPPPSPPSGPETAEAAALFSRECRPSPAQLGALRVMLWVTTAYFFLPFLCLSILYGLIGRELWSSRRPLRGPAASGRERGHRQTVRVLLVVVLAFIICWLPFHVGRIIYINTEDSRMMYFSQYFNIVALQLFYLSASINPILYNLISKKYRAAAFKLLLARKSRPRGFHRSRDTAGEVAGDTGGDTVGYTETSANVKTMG

Row | Compound | EC50 (Motilin receptor [1]) [nM] | Ki (Motilin receptor [2]) [nM]
1 | CC[C@H]1OC(=O)[C@H](C)[C@@H](O[C@H]2C[C@@](C)(OC)C[C@@H](C)O2)[C@H](C)[C@@H](O[C@@H]2O[C@H](C)C[C@H](N(C)CC)[C@H]2O)[C@@]2(C)CC(C)=C(O2)[C@H](C)[C@@H](O)[C@H]1C | 4.2 | 3.4
2 | NC(=O)[C@@H](CCc1ccccc1)NC(=O)[C@@H](CCc1ccccc1)NC(=O)C1CCC2(CCNCC2)n2c(=O)n(Cc3ccc4c(c3)OCO4)c(=O)n21 (stereo partly specified) | 7.3 | 2.7
3 | NC(=O)[C@@H](CCc1ccccc1)NC(=O)C1C=CC2(CCNCC2)n2c(=O)n(Cc3ccc4c(c3)OCO4)c(=O)n21 (stereo partly specified) | > 10000 | > 10000
4 | NC(=O)[C@H](CCc1ccccc1)NC(=O)C1C=CC2(CCNCC2)n2c(=O)n(Cc3ccc4c(c3)OCO4)c(=O)n21 (stereo in doubt; 1A) | > 10000 | 5800
5 | NC(=O)[C@H](CCc1ccccc1)NC(=O)C1C=CC2(CCNCC2)n2c(=O)n(Cc3ccc4c(c3)OCO4)c(=O)n21 (stereo in doubt; 1B) | 560 | 4100
6 | NC(=O)[C@H](CCc1ccccc1)NC(=O)C1C=CC2(CCNCC2)n2c(=O)n(Cc3ccc4c(c3)OCO4)c(=O)n21 (stereo in doubt; 13B) | > 10000 | > 10000
7 | CC[C@H](C)[C@H](NC(=O)[C@@H]1CCCN1C(=O)[C@@H](NC(=O)[C@@H](N)Cc1ccccc1)C(C)C)C(=O)N[C@@H](Cc1ccccc1)C(=O)N[C@H](C(=O)N[C@@H](Cc1ccc(O)cc1)C(=O)NCC(=O)N[C@@H](CCC(=O)O)C(=O)N[C@@H](CC(C)C)C(=O)N[C@@H](CCC(N)=O)C(=O)N[C@@H](CCCNC(=N)N)C(=O)N[C@@H](CCSC)C(=O)N[C@@H](CCC(N)=O)C(=O)N[C@@H](CCC(=O)O)C(=O)N[C@@H](CCCCN)C(=O)N[C@@H](CCC(=O)O)C(=O)N[C@@H](CCCNC(=N)N)C(=O)N[C@@H](CC(N)=O)C(=O)N[C@@H](CCCCN)C(=O)NCC(=O)N[C@@H](CCC(N)=O)C(=O)O)[C@@H](C)O [MOTILIN] | 0.15 | 3.1

Continued, values first:

Row | EC50 (Motilin receptor [1]) [nM] | Ki (Motilin receptor [2]) [nM] | Compound
8 | 0.22 | 2 | NC(=O)[C@H](CCc1ccccc1)NC(=O)[C@H](CCc1ccccc1)NC(=O)C1C=CC2(CCNCC2)n2c(=O)n(Cc3ccc4c(c3)OCO4)c(=O)n21 (stereo partly specified)
9 | > 10000 | – | C[C@H](NC(=O)C1C=CC2(CCNCC2)n2c(=O)n(Cc3ccc4c(c3)OCO4)c(=O)n21)C(N)=O (stereo partly specified)
10 | > 10000 | – | NC(=O)[C@H](Cc1ccccc1)NC(=O)C1C=CC2(CCNCC2)n2c(=O)n(Cc3ccc4c(c3)OCO4)c(=O)n21 (stereo partly specified)
11 | > 10000 | – | C[C@@H](NC(=O)C1C=CC2(CCNCC2)n2c(=O)n(Cc3ccc4c(c3)OCO4)c(=O)n21)C(N)=O (stereo partly specified)
12 | > 10000 | > 10000 | COC(=O)[C@@H](CCc1ccccc1)NC(=O)C1C=CC2(CCNCC2)n2c(=O)n(Cc3ccc4c(c3)OCO4)c(=O)n21 (stereo partly specified)
13 | 4200 | – | NC(=O)[C@@H](Cc1ccccc1)NC(=O)C1C=CC2(CCNCC2)n2c(=O)n(Cc3ccc4c(c3)OCO4)c(=O)n21 (stereo partly specified)
14 | 0.35 | 1 | NC(=O)[C@H](CCc1ccccc1)NC(=O)[C@H](CCc1ccccc1)NC(=O)C1CCC2(CCNCC2)n2c(=O)n(Cc3ccc4c(c3)OCO4)c(=O)n21 (stereo in doubt; 11)
15 | 0.047 | 0.7 | NC(=O)[C@H](CCc1ccccc1)NC(=O)[C@H](CCc1ccccc1)NC(=O)C1CCC2(CCNCC2)n2c(=O)n(Cc3ccc4c(c3)OCO4)c(=O)n21 (stereo in doubt; 11A)
